Legend:
[1] = test system: PC-3 PIP/flu tumor-bearing mice; assay: Biodistribution in PC-3 PIP/flu tumor-bearing mice; assay type: in vivo, mouse; settings: for AUCTu(0→48 h)-to-AUCKi(0→48 h) ratio: PC-3 PIP model (female mice); for AUCTu(0→48 h)-to-AUCKi(0→48 h) ratio / AUC0→48h, Kidneys / AUC0→48h, PC-3 PIP tumor: average ± SE, non-decay-corrected
Protocol: (§1) Male BALB/c nude mice were subcutaneously inoculated on the right shoulder with LNCaP tumor cells (5 × 10^6 cells in PBS mixed with Matrigel (20 mg/mL, BD Biosciences) at a ratio of 3 to 1 (v/v) to a total volume of 200 μL per mouse). Biodistribution and SPECT/CT imaging studies with both tumor xenograft models were performed when the tumors reached a volume of 100–300 mm^3.
(§2) [^177Lu]Lu-Ibu-DAB-PSMA (5 MBq, 100 µL) and [^177Lu]Lu-PSMA-617 (5 MBq, 100 µL) were diluted in saline containing 0.05% bovine serum albumin (BSA) to prevent adherence of the radioligands to the syringe. The radioligands were intravenously injected at a ligand amount of 0.05 nmol or 1.0 nmol per mouse. The number of mice per setting was commonly n = 3 and, in case of inconclusive results, additional mice up to a total of n = 6 were included. The mice were sacrificed at 4 h, 24 h, or 48 h post injection (p.i.) and selected tissues and organs were collected, weighed, and counted in a γ-counter (Supplementary Material). The data sets were analyzed for significance using a one-way ANOVA with Sidak’s multiple comparison post-test using the GraphPad Prism software (version 8). A p value of < 0.05 was considered statistically significant. Tumor-to-kidney and tumor-to-blood ratios were calculated for all investigated timepoints after injection of each radioligand.
Time-activity curves over the first 48 h after injection of the radioligands were determined for the PC-3 PIP tumor, the LNCaP tumor, and the kidneys of the corresponding xenograft model based on non-decay-corrected time-dependent biodistribution data obtained at 4 h, 24 h, and 48 h p.i. This allowed calculating the areas under the curve (AUC0→48 h) using the GraphPad Prism software (version 8) (Supplementary Material). The tumor-to-kidney AUC0→48 h ratios were calculated for both xenograft models.
3. Biodistribution studies
Purpose: The impact of the tumor mouse model and the injected ligand amount on the biodistribution of [177Lu]Lu-Ibu-DAB-PSMA and [177Lu]Lu-PSMA-617 was investigated.
Methods: The biodistribution studies were conducted with either PC-3 PIP/flu or LNCaP tumor-bearing mice injected with either 0.05 nmol or 1.0 nmol of radioligand per mouse, whereas the applied activity was kept constant for each setting. The results were decay-corrected and the values indicated as average ± SD obtained from each gr oup of mice (n = 3−6) and listed as percentage of injected activity per gra m tissue [% IA/g].
Results: The results are listed below (Table S1–S4) and described and discussed in the main article.
Table S1 Decay -corrected biodistribution data of [177Lu]Lu-Ibu-DAB-PSMA in PC-3 PIP/flu tumor-bearing mice injected with either 0. 05 nmol or 1.0 nmol per mouse. The values are indicated as average ± SD obtained from each group of mice (n = 3−6) and listed as percentage of injected activity per gram […]
Dissection time 4 h p.i. 24 h p.i. 48 h p.i. […]
a Data obtained with 1.0 nmol [177Lu]Lu-Ibu-DAB-PSMA were reproduced from Deberle et al. […]
radioligands in order to be able to judge the changes in activity uptake in the tumor and kidney s as a consequence of the tumor model and the injected amount of ligand, respectively.
Methods: T he time-activity curves over the first 48 h after injection were determined for the PC-3 PIP tumor, the LNCaP tumor as well as for the kidneys of each tumor mouse model based on non-decay - corrected time-dependent biodistribution data. For these calculations, the radioligand uptake in the tumors and the kidney s at t = 0 h p.i. was set to 0% IA/g.

[2] = test system: PC-3 PIP/flu or LNCaP tumor-bearing mice; assay: Biodistribution, comparison or ranges over both PC-3 PIP and LNCaP tumor mouse models; assay type: in vivo
Protocol: as §1, §2

[3] = PC-3 PIP model, 4 h p.i., 0.05 nmol
[4] = PC-3 PIP model, 24 h p.i., 0.05 nmol
[5] = PC-3 PIP model, 48 h p.i., 0.05 nmol

CC(C)Cc1ccc(C(C)C(=O)NC(CCN)C(=O)NCCCCC(NC(=O)CN2CCN(CC(=O)O)CCN(CC(=O)O)CCN(CC(=O)O)CC2)C(=O)NCC2CCC(C(=O)NC(Cc3ccc4ccccc4c3)C(=O)NCCCCC(NC(=O)NC(CCC(=O)O)C(=O)O)C(=O)O)CC2)cc1 (centres unmarked) [[^177Lu]Lu-Ibu-DAB-PSMA, metal not drawn]
PC-3 PIP tumor uptake, low vs high ligand amount ([1]; 0.05 nmol vs 1.0 nmol, 24 h and 48 h p.i.): 1.5–1.6 fold
AUCTu(0→48 h)-to-AUCKi(0→48 h) ratio ([1]; 0.05 nmol): 3.2 ± 0.5
AUCTu(0→48 h)-to-AUCKi(0→48 h) ratio ([1]; 1.0 nmol): 5.6 ± 0.7
AUC0→48h, Kidneys ([1]; PC-3 PIP model, 0.05 nmol): 945 ± 97 % IA/g*h
AUC0→48h, PC-3 PIP tumor ([1]; PC-3 PIP model, 0.05 nmol): 3027 ± 206 % IA/g*h
Increase of tumor-to-kidney AUC0→48 h ratio for high vs low molar amount of injected ligand ([1]; PC-3 PIP model, 1.0 nmol vs 0.05 nmol): 1.8 fold
AUC0→48h, Kidneys ([1]; PC-3 PIP model, 1.0 nmol): 388 ± 23 % IA/g*h
AUC0→48h, PC-3 PIP tumor ([1]; PC-3 PIP model, 1.0 nmol): 2166 ± 153 % IA/g*h
Tissue distribution, Blood [1, 3]: 1.3 ± 0.3 % IA/g
Tissue distribution, Bone [1, 3]: 0.29 ± 0.06 % IA/g
Tissue distribution, Heart [1, 3]: 0.54 ± 0.12 % IA/g
Tissue distribution, Intestines [1, 3]: 0.29 ± 0.05 % IA/g
Tissue distribution, Kidneys [1, 3]: 69 ± 10 % IA/g
Tissue distribution, Liver [1, 3]: 1.1 ± 0.1 % IA/g
Tissue distribution, Lung [1, 3]: 1.3 ± 0.3 % IA/g
Tissue distribution, Muscle [1, 3]: 0.22 ± 0.06 % IA/g
Tissue distribution, PC-3 PIP tumor [1, 3]: 81 ± 4 % IA/g
Tissue distribution, PC-3 flu tumor [1, 3]: 0.67 ± 0.10 % IA/g
Tissue distribution, Salivary glands [1, 3]: 0.69 ± 0.18 % IA/g
Tissue distribution, Spleen [1, 3]: 1.9 ± 0.4 % IA/g
Tissue distribution, Stomach [1, 3]: 0.33 ± 0.09 % IA/g
Tumor-to-blood ratio [1, 3]: 65 ± 20
Tumor-to-kidney ratio [1, 3]: 1.2 ± 0.2
Tumor-to-liver ratio [1, 3]: 74 ± 8
Tissue distribution, Blood [1, 4]: 0.23 ± 0.03 % IA/g
Tissue distribution, Bone [1, 4]: 0.13 ± 0.04 % IA/g
Tissue distribution, Heart [1, 4]: 0.15 ± 0.02 % IA/g
Tissue distribution, Intestines [1, 4]: 0.11 ± 0.03 % IA/g
Tissue distribution, Kidneys [1, 4]: 5.5 ± 1.0 % IA/g
Tissue distribution, Liver [1, 4]: 0.54 ± 0.13 % IA/g
Tissue distribution, Lung [1, 4]: 0.27 ± 0.04 % IA/g
Tissue distribution, Muscle [1, 4]: < 0.10 % IA/g
Tissue distribution, PC-3 PIP tumor [1, 4]: 78 ± 14 % IA/g
Tissue distribution, PC-3 flu tumor [1, 4]: 0.31 ± 0.05 % IA/g
Tissue distribution, Salivary glands [1, 4]: 0.21 ± 0.02 % IA/g
Tissue distribution, Spleen [1, 4]: 0.42 ± 0.09 % IA/g
Tissue distribution, Stomach [1, 4]: 0.11 ± 0.02 % IA/g
Tumor-to-blood ratio [1, 4]: 341 ± 48
Tumor-to-kidney ratio [1, 4]: 14 ± 2
Tumor-to-liver ratio [1, 4]: 149 ± 34
Tissue distribution, Blood [1, 5]: 0.13 ± 0.03 % IA/g
Tissue distribution, Bone [1, 5]: < 0.10 % IA/g
Tissue distribution, Heart [1, 5]: < 0.10 % IA/g
Tissue distribution, Intestines [1, 5]: < 0.10 % IA/g
Tissue distribution, Kidneys [1, 5]: 2.3 ± 0.4 % IA/g
Tissue distribution, Liver [1, 5]: 0.28 ± 0.03 % IA/g
Tissue distribution, Lung [1, 5]: 0.18 ± 0.04 % IA/g
Tissue distribution, Muscle [1, 5]: < 0.10 % IA/g
Tissue distribution, PC-3 PIP tumor [1, 5]: 58 ± 9 % IA/g
Tissue distribution, PC-3 flu tumor [1, 5]: 0.17 ± 0.01 % IA/g
Tissue distribution, Salivary glands [1, 5]: 0.11 ± 0.02 % IA/g
Tissue distribution, Spleen [1, 5]: 0.25 ± 0.05 % IA/g
Tissue distribution, Stomach [1, 5]: 0.12 ± 0.08 % IA/g
Tumor-to-blood ratio [1, 5]: 445 ± 51
Tumor-to-kidney ratio [1, 5]: 26 ± 2
Tumor-to-liver ratio [1, 5]: 205 ± 10
Tumor accumulation in PC-3 PIP vs LNCaP tumor xenografts ([2]; 0.05 nmol): approximately fourfold
Tumor uptake in PC-3 PIP vs LNCaP tumor xenografts ([2]; 1.0 nmol): 6 fold
Kidney retention, low vs high amount of injected ligand ([2]; 4 h p.i., 0.05 nmol vs 1.0 nmol): about fourfold
Kidney retention ([2]; 4 h p.i., high amount of injected ligand (1.0 nmol), range over both mouse models (PC-3 PIP data reproduced from earlier papers)): 16–19 % IA/g
Kidney retention ([2]; 4 h p.i., low amount of injected ligand (0.05 nmol), range over both mouse models): 58–69 % IA/g
Renal retention of activity ([2]; 24 h p.i., irrespective of the injected ligand amount, range over both mouse models): 5.5–6.8 % IA/g
